Measured values taken from patent US20090197930A1, “Eyedrops” (priority 2006, published 2009).

Settings: administered at high concentration

O=C1CN(/N=C/c2ccc(-c3ccc([N+](=O)[O-])cc3)o2)C(=O)[N-]1.[Na+] [dantrolene, Dantrolene sodium]
miosis: strong miosis | myopic inclination: myopic inclination is stronger | pupillary reaction: pupillary reaction becomes dull
